For test [1], the target named is N-methyl-D-aspartate (NMDA) receptor, MK-801 binding site. Put plainly: radioligand displacement of [3H]-MK801. The conditions noted are these: read-out: IC50 (μM) ^a; MK-801 channel site. On the technique in general: In a radioligand displacement assay an active substance lowers the binding of a labelled ligand.
The target is the same in test [2]. Put plainly: radioligand displacement of [3H]-MK801. The conditions noted are these: read-out: Ki (μM) ^a; MK-801 channel site.

As usually defined, the IC50 is the point on the concentration scale where inhibition reaches its midpoint. The term Ki denotes a dissociation constant, usually derived from enzyme kinetics or from competition with a known ligand. Consider `N[C@@]1(c2ccccc2Cl)C[C@H](O)CCC1=O` [11a, (2R,4R)-HNK], for which the IC50 in test [1] is greater than 100 µM. For the same molecule, the Ki in test [2] is greater than 100 µM.

Take `N[C@]1(c2ccccc2Cl)CCC=CC1=O` [3b, (S)-DHNK]: the IC50 in test [1] was 42 µM. Also, the Ki in test [2] was 29.7 µM.

Regarding `N[C@@]1(c2ccccc2Cl)CCC[C@H](O)C1=O` [4a, (2R,6S)-HNK], the IC50 in test [1] is greater than 100 µM. Also, in test [2], the Ki was greater than 100 µM.

Turning to (+)-MK-801 [reference compound], the 50% inhibitory concentration (IC50) in test [1] was found to be 0.00493 µM. In addition, the Ki in test [2] came to 0.00348 µM.

Regarding `N[C@@]1(c2ccccc2Cl)C[C@@H](O)CCC1=O` [10a, (2R,4S)-HNK], the 50% inhibitory concentration (IC50) in test [1] was greater than 100 µM. The Ki in test [2] is greater than 100 µM.

Consider `N[C@@]1(c2ccccc2Cl)CCC=CC1=O` [3a, (R)-DHNK], for which the half-inhibitory concentration (IC50) in test [1] amounted to 59.7 µM. The Ki in test [2] stood at 42.1 µM.

`N[C@@]1(c2ccccc2Cl)CC[C@H](O)CC1=O` [9a, (2R,5S)-HNK]: the IC50 in test [1] was greater than 100 µM. For the same molecule, the inhibition constant (Ki) in test [2] is greater than 100 µM.

For `N[C@]1(c2ccccc2Cl)C[C@H](O)CCC1=O` [10b, (2S,4R)-HNK], the IC50 in test [1] is greater than 100 µM. Further, the Ki in test [2] was greater than 100 µM.

As for `N[C@]1(c2ccccc2Cl)CCC[C@@H](O)C1=O` [4b, (2S,6R)-HNK], in test [1], the IC50 is greater than 100 µM. Further, the Ki in test [2] is greater than 100 µM.

For `N[C@@]1(c2ccccc2Cl)CCC[C@@H](O)C1=O` [7a, (2R,6R)-HNK], in test [1], the IC50 was greater than 100 µM. Moreover, the Ki in test [2] is greater than 100 µM.

For the molecule `CNC1(c2ccccc2Cl)CCCCC1=O` (racemic) [compound 1, (R,S)-ketamine], in test [1], the IC50 came to 0.35 µM. In addition, in test [2], the Ki stood at 0.25 µM.

Regarding `N[C@]1(c2ccccc2Cl)CC[C@H](O)CC1=O` [8b, (2S,5S)-HNK], in test [1], the IC50 is greater than 100 µM. Further, the Ki in test [2] is greater than 100 µM.

With `N[C@]1(c2ccccc2Cl)CCC[C@H](O)C1=O` [7b, (2S,6S)-HNK], in test [1], the IC50 was 10.4 µM. In addition, in test [2], the Ki amounted to 7.34 µM.

For `N[C@]1(c2ccccc2Cl)C[C@@H](O)CCC1=O` [11b, (2S,4S)-HNK], in test [1], the IC50 was greater than 100 µM. The Ki in test [2] is greater than 100 µM.

As for `N[C@@]1(c2ccccc2Cl)CC[C@@H](O)CC1=O` [8a, (2R,5R)-HNK], in test [1], the half-inhibitory concentration (IC50) was greater than 100 µM. In test [2], the Ki was greater than 100 µM.

In the case of `N[C@]1(c2ccccc2Cl)CC[C@@H](O)CC1=O` [9b, (2S,5R)-HNK], in test [1], the IC50 was greater than 100 µM. Also, the Ki in test [2] is greater than 100 µM.

Source of the values: paper PMC5641405 (Organic letters, 2017).
